Assays:
[1] = target: T1, SpTPC1 (Strongylocentrotus purpuratus, UniProt B8PXJ8); experiment: […]NAADP competition binding on immunoprecipitate; details: competitor against [32P]NAADP; immunopurified native complex; K+-dependent irreversible binding
T1 construct: endogenous full-length protein immunoprecipitated with anti-SpTPC1 serum from solubilized egg membranes (S10P100 fraction); native complex, may carry associated proteins
T1 sequence (B8PXJ8 1-882): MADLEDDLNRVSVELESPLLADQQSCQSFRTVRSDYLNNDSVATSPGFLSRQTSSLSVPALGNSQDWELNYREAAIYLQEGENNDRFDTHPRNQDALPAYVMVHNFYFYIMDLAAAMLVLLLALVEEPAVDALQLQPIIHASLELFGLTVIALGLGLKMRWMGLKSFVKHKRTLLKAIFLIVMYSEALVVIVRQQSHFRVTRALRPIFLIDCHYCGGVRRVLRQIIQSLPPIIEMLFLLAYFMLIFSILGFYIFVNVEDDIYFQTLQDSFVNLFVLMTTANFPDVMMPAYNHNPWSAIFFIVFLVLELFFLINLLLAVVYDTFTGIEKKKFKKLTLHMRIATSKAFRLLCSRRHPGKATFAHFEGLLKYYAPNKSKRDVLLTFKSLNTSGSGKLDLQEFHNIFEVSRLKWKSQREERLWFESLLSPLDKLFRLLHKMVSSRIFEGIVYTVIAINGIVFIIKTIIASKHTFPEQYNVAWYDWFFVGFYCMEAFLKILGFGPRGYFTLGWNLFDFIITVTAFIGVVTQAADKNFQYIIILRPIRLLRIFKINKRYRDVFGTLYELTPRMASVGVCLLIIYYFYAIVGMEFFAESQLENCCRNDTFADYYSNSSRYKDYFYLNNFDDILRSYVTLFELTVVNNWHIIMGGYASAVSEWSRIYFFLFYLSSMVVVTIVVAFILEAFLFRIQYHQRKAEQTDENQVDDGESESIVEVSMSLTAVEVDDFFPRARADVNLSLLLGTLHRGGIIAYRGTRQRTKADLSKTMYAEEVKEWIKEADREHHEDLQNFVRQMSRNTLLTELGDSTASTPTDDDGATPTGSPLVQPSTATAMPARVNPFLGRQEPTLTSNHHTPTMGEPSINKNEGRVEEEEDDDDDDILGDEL

[2] = target: T2, SpTPC3 (Strongylocentrotus purpuratus, UniProt B8PXK0); experiment: as above; details: competitor against [32P]NAADP; immunopurified native complex; K+-dependent irreversible binding
T2 construct: endogenous full-length protein immunoprecipitated with anti-SpTPC3 serum from solubilized egg membranes (S10P100 fraction); possibly homodimer; may carry associated proteins
T2 sequence (B8PXK0 1-840): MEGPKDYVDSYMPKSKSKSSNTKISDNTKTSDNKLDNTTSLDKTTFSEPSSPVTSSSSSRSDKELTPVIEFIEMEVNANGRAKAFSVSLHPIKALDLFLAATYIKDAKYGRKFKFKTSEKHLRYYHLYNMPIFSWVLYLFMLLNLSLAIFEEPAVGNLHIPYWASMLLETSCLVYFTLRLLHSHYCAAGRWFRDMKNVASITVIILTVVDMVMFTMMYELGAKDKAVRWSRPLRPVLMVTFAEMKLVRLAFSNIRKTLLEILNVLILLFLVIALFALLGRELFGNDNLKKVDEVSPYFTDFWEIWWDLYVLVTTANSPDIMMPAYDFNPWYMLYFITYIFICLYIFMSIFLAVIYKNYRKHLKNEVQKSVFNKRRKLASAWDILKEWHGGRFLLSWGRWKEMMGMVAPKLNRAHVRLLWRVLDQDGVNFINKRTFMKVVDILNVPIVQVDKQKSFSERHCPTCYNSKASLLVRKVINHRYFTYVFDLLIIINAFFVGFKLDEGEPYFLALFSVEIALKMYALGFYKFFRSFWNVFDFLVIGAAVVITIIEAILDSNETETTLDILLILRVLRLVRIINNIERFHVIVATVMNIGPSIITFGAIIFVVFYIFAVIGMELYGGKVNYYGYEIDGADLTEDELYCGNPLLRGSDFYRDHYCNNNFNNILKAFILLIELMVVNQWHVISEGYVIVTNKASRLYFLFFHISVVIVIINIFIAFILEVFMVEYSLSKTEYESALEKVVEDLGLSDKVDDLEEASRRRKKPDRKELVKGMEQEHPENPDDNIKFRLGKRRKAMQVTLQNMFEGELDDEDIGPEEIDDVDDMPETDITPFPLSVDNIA

- IC50 [1]: 1.4 nM
- IC50 [2]: 0.9 nM
SMILES: Nc1ncnc2c1ncn2[C@@H]1O[C@H](COP(=O)(O)OP(=O)(O)OC[C@H]2O[C@@H]([n+]3cccc(C(=O)O)c3)[C@H](O)[C@@H]2O)[C@@H](O)[C@H]1OP(=O)(O)O [NAADP]

— paper PMC2861162, “Purified TPC Isoforms Form NAADP Receptors with Distinct Roles for Ca^2+ Signaling and Endolysosomal Trafficking” (Current Biology, 2010)
